# Measurements taken from patent US7247634B2, “Rifamycin derivatives effective against drug-resistant microbes” (Cumbre Pharmaceuticals Inc., priority 2004, dated 2007).
# Legend:
# Type in all cases: cell-based
# [1] = test system: Staphylococcus aureus ATCC29213; experiment: MIC, microbroth dilution (NCCLS); settings: rifS strain, Cation-Adjusted Mueller-Hinton Broth, 37° C., read-out: Antimicrobial activity (MIC)
# [2] = test system: Staphylococcus aureus ATCC29213 rpoB^D417Y; experiment: microbe, parasite or virus in culture; settings: ATCC29213, read-out: Antimicrobial activity (MIC)
# Method in brief: (§1)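 MICs by NCCLS broth microdilution, incubation at 37 °C, in cation-adjusted Mueller-Hinton broth. Strains: rifampin-resistant S. aureus ATCC 29213 with rpoB D417Y or H418Y, and quinolone-resistant EN1252a carrying gyrA S84L plus grlA S80F.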
# [3] = test system: Staphylococcus aureus ATCC29213 rpoB^H418Y; experiment: microbe, parasite or virus in culture; settings: ATCC29213, read-out: Antimicrobial activity (MIC)
# Method in brief: as §1
# [4] = test system: Staphylococcus aureus EN1252a gyrA^S84L grlA^S80F; experiment: microbe, parasite or virus in culture; settings: read-out: Antimicrobial activity (MIC)
# Method in brief: as §1
# [5] = test system: Staphylococcus epidermidis ATCC12228; experiment: MIC, microbroth dilution (NCCLS); settings: rifS strain, Cation-Adjusted Mueller-Hinton Broth, 37° C., read-out: Antimicrobial activity (MIC)
# [6] = test system: Streptococcus pneumoniae ATCC6303; experiment: MIC, microbroth dilution (NCCLS); settings: rifS strain, THY Broth with 1 mg/mL catalase, 5% CO2, 37° C., read-out: Antimicrobial activity (MIC)
# [7] = test system: Streptococcus pyogenes ATCC19615; experiment: MIC, microbroth dilution (NCCLS); settings: rifS strain, THY Broth, 37° C., read-out: Antimicrobial activity (MIC)
# [8] = test system: Enterococcus faecalis ATCC29212; experiment: MIC, microbroth dilution (NCCLS); settings: rifS strain, BHI Broth, 37° C., read-out: Antimicrobial activity (MIC)
# [9] = test system: Haemophilus influenzae ATCC10211; experiment: MIC, microbroth dilution (NCCLS); settings: rifS strain, BHI Broth with NAD and hematin, 37° C., read-out: Antimicrobial activity (MIC)
# [10] = test system: Escherichia coli ATCC25922; experiment: MIC, microbroth dilution (NCCLS); settings: rifS strain, Cation-Adjusted Mueller-Hinton Broth, 37° C., read-out: Antimicrobial activity (MIC)
# [11] = test system: Mycobacterium smegmatis ATCC700084; experiment: MIC, microbroth dilution (NCCLS); settings: Mycolicibacterium smegmatis, rifS strain, Middlebrook Broth plus ADC Enrichment, 37° C., read-out: Antimicrobial activity (MIC)
SMILES,MIC [1] [µg/mL],MIC [2] [µg/mL],MIC [3] [µg/mL],MIC [4] [µg/mL],MIC [5] [µg/mL],MIC [6] [µg/mL],MIC [7] [µg/mL],MIC [8] [µg/mL],MIC [9] [µg/mL],MIC [10] [µg/mL],MIC [11] [µg/mL]
"CO[C@H]1/C=C/O[C@@]2(C)Oc3c(C)c(O)c4c(c3C2=O)C(=O)C(NCCN2CCN(c3ccc(N5C[C@H](CNC(C)=O)OC5=O)cc3F)CC2)=C(NC(=O)/C(C)=C\C=C\[C@H](C)[C@H](O)[C@@H](C)[C@@H](O)[C@@H](C)[C@H](OC(C)=O)[C@@H]1C)C4=O [Example 24, (S)-3-[4-[4-(5-Acetylaminomethyl-2-oxo-oxazolidin-3-yl)-2-fluoro-phenyl]-piperazin-1-ylethylamino]-rifamycin S]",0.004 to 0.5,0.06 to 32,0.06 to 16,0.004 to 0.5,0.008 to 0.063,0.008 to 0.125,0.008 to 0.063,2 to 32,0.125 to 2,0.125 to 8,0.5 to 64
"CO[C@H]1/C=C/O[C@@]2(C)Oc3c(C)c(O)c4c(c3C2=O)C(=O)C(NCC2CN(c3cc5c(cc3F)c(=O)c(C(=O)O)cn5C3CC3)C2)=C(NC(=O)/C(C)=C\C=C\[C@H](C)[C@H](O)[C@@H](C)[C@@H](O)[C@@H](C)[C@H](OC(C)=O)[C@@H]1C)C4=O [Example 25, 3-[1-(3-Carboxy-1-cyclopropyl-6-fluoro-4-oxo-1,4-dihydroquinolin-7-yl)azetidin-3-methylamino)rifamycin S]",0.004 to 0.5,0.06 to 32,0.06 to 16,0.004 to 0.5,0.008 to 0.063,0.008 to 0.125,0.008 to 0.063,2 to 32,0.125 to 2,0.125 to 8,0.5 to 64
"COc1c(N2CCN(C3=C4NC(=O)/C(C)=C\C=C\[C@H](C)[C@H](O)[C@@H](C)[C@@H](O)[C@@H](C)[C@H](OC(C)=O)[C@H](C)[C@@H](OC)/C=C/O[C@@]5(C)Oc6c(C)c(O)c(c(c6C5=O)C3=O)C4=O)CC2)c(F)cc2c(=O)c(C(=O)O)cn(C3CC3)c12 [Example 26, 3-[4-(3-Carboxy-1-cyclopropyl-6-fluoro-8-methoxy-4-oxo-1,4-dihydroquinolin-7-yl)-piperazin-1-yl]rifamycin S]",0.004 to 0.5,0.06 to 32,0.06 to 16,0.004 to 0.5,0.008 to 0.063,0.008 to 0.125,0.008 to 0.063,2 to 32,0.125 to 2,0.125 to 8,0.5 to 64
"COc1c(N2CCN(C3CCN(C4=C5NC(=O)/C(C)=C\C=C\[C@H](C)[C@H](O)[C@@H](C)[C@@H](O)[C@@H](C)[C@H](OC(C)=O)[C@H](C)[C@@H](OC)/C=C/O[C@@]6(C)Oc7c(C)c(O)c(c(c7C6=O)C4=O)C5=O)CC3)CC2)c(F)cc2c(=O)c(C(=O)O)cn(C3CC3)c12 [Example 31, 3-{4-[1-(3-Carboxy-1-cyclopropyl-6-fluoro-8-methoxy-4-oxo-1,4-dihydroquinolin-7-yl)-piperazin-4-yl]-piperidin-1-yl}rifamycin S]",0.004 to 0.5,0.06 to 32,0.06 to 16,0.004 to 0.5,0.008 to 0.063,0.008 to 0.125,0.008 to 0.063,2 to 32,0.125 to 2,0.125 to 8,0.5 to 64
"COc1c(N2CC(NC3CCN(C4=C5NC(=O)/C(C)=C\C=C\[C@H](C)[C@H](O)[C@@H](C)[C@@H](O)[C@@H](C)[C@H](OC(C)=O)[C@H](C)[C@@H](OC)/C=C/O[C@@]6(C)Oc7c(C)c(O)c(c(c7C6=O)C4=O)C5=O)CC3)C2)c(F)cc2c(=O)c(C(=O)O)cn(C3CC3)c12 [Example 33, 3-{4-[1-(3-Carboxy-1-cyclopropyl-6-fluoro-8-methoxy-4-oxo-1,4-dihydroquinolin-7-yl)-azetidin-3-ylamino]-piperidin-1-yl}rifamycin S]",0.004 to 0.5,0.06 to 32,0.06 to 16,0.004 to 0.5,0.008 to 0.063,0.008 to 0.125,0.008 to 0.063,2 to 32,0.125 to 2,0.125 to 8,0.5 to 64
